This note sets out measurements from publication PMC9003190, “MeNINV1: An Alkaline/Neutral Invertase Gene of Manihot esculenta, Enhanced Sucrose Catabolism and Promoted Plant Vegetative Growth in Transgenic Arabidopsis” (Plants, 2022).

In one data set the target is T1, MeNINV1 (Manihot esculenta, UniProt G5DC09).
T1 construct: gene NINV1; full-length ORF in pDR195, expressed in invertase-deficient yeast SEY2102; crude enzyme supernatant, empty-vector control
T1 sequence (G5DC09 1-685): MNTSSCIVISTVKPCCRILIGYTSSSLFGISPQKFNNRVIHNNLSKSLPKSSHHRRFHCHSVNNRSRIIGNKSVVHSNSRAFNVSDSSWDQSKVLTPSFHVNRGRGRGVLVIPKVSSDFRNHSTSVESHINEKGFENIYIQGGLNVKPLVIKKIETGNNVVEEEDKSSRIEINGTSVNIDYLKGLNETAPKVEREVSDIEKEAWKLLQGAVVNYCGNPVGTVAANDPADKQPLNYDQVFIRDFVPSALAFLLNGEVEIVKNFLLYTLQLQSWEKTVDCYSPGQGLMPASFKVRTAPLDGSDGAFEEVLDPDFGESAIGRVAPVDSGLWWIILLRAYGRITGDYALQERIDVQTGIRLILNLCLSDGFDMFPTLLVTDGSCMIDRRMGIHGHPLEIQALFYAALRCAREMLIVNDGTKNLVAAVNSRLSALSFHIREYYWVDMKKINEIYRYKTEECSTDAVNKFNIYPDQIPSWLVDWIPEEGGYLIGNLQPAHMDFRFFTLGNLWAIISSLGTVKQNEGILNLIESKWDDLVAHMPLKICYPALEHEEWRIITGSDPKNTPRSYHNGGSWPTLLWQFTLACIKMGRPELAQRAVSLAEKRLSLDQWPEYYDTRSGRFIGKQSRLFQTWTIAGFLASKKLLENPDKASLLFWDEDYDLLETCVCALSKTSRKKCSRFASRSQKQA
Kind of data set: DNS reducing sugar assay, crude yeast extract. In kind it is biochemical. To be noted: product inhibition of sucrose hydrolysis; pH 6.5.

Substrate in data set [1]: OC[C@H]1O[C@@](CO)(O[C@H]2O[C@H](CO)[C@@H](O)[C@H](O)[C@H]2O)[C@@H](O)[C@@H]1O
Nature of the data set: DNS reducing sugar assay, crude yeast extract. In kind it is biochemical, Manihot esculenta. The settings on record: pH 6.5, optimum temperature 40 °C.

Regarding `OCC1(O)OC[C@@H](O)[C@@H](O)[C@@H]1O` (some centres unmarked) [fructose], on MeNINV1, the “DNS reducing sugar assay, crude yeast extract” value is “The addition of fructose, a decomposition product of sucrose, to the reaction solution inhibited”.

B1: MeNINV1 (Manihot esculenta) (protein)
chain: MNTSSCIVISTVKPCCRILIGYTSSSLFGISPQKFNNRVIHNNLSKSLPKSSHHRRFHCHSVNNRSRIIGNKSVVHSNSRAFNVSDSSWDQSKVLTPSFHVNRGRGRGVLVIPKVSSDFRNHSTSVESHINEKGFENIYIQGGLNVKPLVIKKIETGNNVVEEEDKSSRIEINGTSVNIDYLKGLNETAPKVEREVSDIEKEAWKLLQGAVVNYCGNPVGTVAANDPADKQPLNYDQVFIRDFVPSALAFLLNGEVEIVKNFLLYTLQLQSWEKTVDCYSPGQGLMPASFKVRTAPLDGSDGAFEEVLDPDFGESAIGRVAPVDSGLWWIILLRAYGRITGDYALQERIDVQTGIRLILNLCLSDGFDMFPTLLVTDGSCMIDRRMGIHGHPLEIQALFYAALRCAREMLIVNDGTKNLVAAVNSRLSALSFHIREYYWVDMKKINEIYRYKTEECSTDAVNKFNIYPDQIPSWLVDWIPEEGGYLIGNLQPAHMDFRFFTLGNLWAIISSLGTVKQNEGILNLIESKWDDLVAHMPLKICYPALEHEEWRIITGSDPKNTPRSYHNGGSWPTLLWQFTLACIKMGRPELAQRAVSLAEKRLSLDQWPEYYDTRSGRFIGKQSRLFQTWTIAGFLASKKLLENPDKASLLFWDEDYDLLETCVCALSKTSRKKCSRFASRSQKQA
notes: full-length ORF in pDR195, expressed in invertase-deficient yeast SEY2102; crude enzyme supernatant, empty-vector control
In general, Km refers to the substrate concentration at which the rate is half of its maximum. With B1, the Km in data set [1] stood at 10.59 mM.
